The values below come from patent US20260015350A1, “AZAQUINAZOLINE PAN-KRAS INHIBITORS” (Mirati Therapeutics, Inc., priority 2022, published 2026).

Test [1] concerns KRas-mediated phosphorylation of ERK in H727 cells. The test is described as follows: Inhibition of KRas-mediated phosphorylation of ERK (Cisbio HTRF pERK), H727 cells. In kind it is cell-based. The following applies: Homo sapiens, NCI-H727, H727 cells; HTRF pERK. An outline of the steps:
(§1)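 A cell-based HTRF pERK assay: ten-point, threefold titrations beginning at 10 uM were applied for 3 hrs, with 0.2 uM Trametinib wells as the minimum control. Cells were lysed cold, and lysate was incubated with the antibody pair for 2 hrs before reading.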
(In general: Time-resolved FRET reads energy transfer from a long-lived donor to a nearby acceptor.)

The subject of test [2] is KRas-mediated phosphorylation of ERK in AsPC-1 cells. The test is described as follows: Inhibition of KRas-mediated phosphorylation of ERK (Cisbio HTRF pERK), AsPC-1 cells. In kind it is cell-based. The note with it: Homo sapiens, ASPC1, AsPC-1 cells; HTRF pERK. An outline of the steps: as §1
In test [3] the test system is KRas-mediated phosphorylation of ERK in H358 cells. The test can be described thus: Inhibition of KRas-mediated phosphorylation of ERK (Cisbio HTRF pERK), H358 cells. The following applies: Homo sapiens, NCI-H358, HTRF pERK. In kind it is cell-based. An outline of the steps: as §1
Test [4] has as its system KRas-mediated phosphorylation of ERK in H2009 cells. The test can be described thus: Inhibition of KRas-mediated phosphorylation of ERK (Cisbio HTRF pERK), H2009 cells. In kind it is cell-based. The following applies: Homo sapiens, NCI-H2009. How it is done:
Inhibition of KRas Phosphorylation of ERK (HTRF) by Exemplary Compounds of Formula (I)
Cisbio HTRF Advanced PERK Assay Catalog #64AERPEH
1. To harvest cells from flask using 0.05% Trypsin/EDTA solution. Add 10 mL of media to stop trypsinizing. Pipette the cells into a conical bottom 50 mL centrifuge tube and centrifuge 5 min×1000 rpm.
2. Re-suspend the cell pellet in media, take a cell count, and then adjust the cell density using fresh media.
3. Seed 6,000 cells into cell culture plate with 50 μL media. […]
4. Incubate cell plate overnight in a 37° C., 5% CO2 incubator.
1. Use Tecan to complete the compound addition. Compounds start from 10 uM top, 3-fold dilution, and 10 doses. The final DMSO concentration is 0.8%. Dispensed 0.2 uM Trametinib as Min control.
2. Incubate cell plate for 3 hrs in the incubator.
Detection with Cisbio pERK HTRF Kit
1. Dilute 1 volume of 4× lysis buffer with 3 volumes of deionized water. Then, add 100× the blocking reagent. Keep lysis buffer on the ice.
2. At the end of the compound treatment, flick-off the media.
3. Add 35 μL of lysis buffer per well using a Multidrop Combi. Then place on a plate agitator shaking at 300 rpm at 4° C. for 40 mins.
4. Make up the HTRF antibody buffer. For each assay plate, mix 50 μL of d2-conjugate antibody with 950 μL of detection buffer. Similarly, mix 50 μL of Cryptate antibody with 950 μL of detection buffer. Then mix the two diluted antibodies together.
5. Dispense 3.4 μL the antibody buffer to wells of an empty assay plate. Seal the plate and centrifuge plate 30 sec×1000 rpm.
6. At the end of the 4° C. lysis, centrifuge the lysate plates 3 mins×1500 rpm.
7. Use the Bravo to transfer 13.6 μL of lysate from cell culture plate to assay plate. Then incubate assay plate for 2 hrs at room temperature.
8. At the end of incubation, read plate on the Envision after centrifuging plate 30 sec×1000 rpm.

Test [5] deals with KRas-mediated phosphorylation of ERK in H460 cells. The test is described as follows: Inhibition of KRas-mediated phosphorylation of ERK (Cisbio HTRF pERK), H460 cells. In kind it is cell-based. The note with it: Homo sapiens, NCI-H460, HTRF pERK. The method in brief:
as §1

Test [6] concerns KRas-mediated phosphorylation of ERK in A549 cells. The test is described as follows: Inhibition of KRas-mediated phosphorylation of ERK (Cisbio HTRF pERK), A549 cells. In kind it is cell-based. The following applies: Homo sapiens, HTRF pERK. The method in brief:
(§2)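 Min control wells contained 0.2 uM Trametinib, while test compounds ran as 10 doses (3-fold, top 10 uM; 0.8% DMSO final) on cells for 3 hrs. After 40 mins lysis at 4° C, lysates were probed with HTRF antibodies for 2 hrs at room temperature.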

Test [7] deals with KRas-mediated phosphorylation of ERK in HCT116 cells. The test is described as follows: Inhibition of KRas-mediated phosphorylation of ERK (Cisbio HTRF pERK), HCT116 cells. In kind it is cell-based. The note with it: Homo sapiens, HCT-116, HTRF pERK. The method in brief:
as §2

Test [8] concerns the target T1, KRas^G12S (Homo sapiens, UniProt P01116, G12S).
T1 construct: Biotinylated KRas (corresponding to amino acids 1-169, produced at Accelegan Inc.); biotin (biotinylated); purchased Accelegan Inc
The test is described as follows: KRas binding assay (TR-FRET tracer displacement), KRas G12S. The following applies: TR-FRET tracer displacement, KRas G12S.

The target in test [9] is T2, KRas^G12C (Homo sapiens, UniProt P01116, G12C).
T2 construct: Biotinylated KRas (corresponding to amino acids 1-169, produced at Accelegan Inc.); biotin (biotinylated); purchased Accelegan Inc
The test is described as follows: KRas binding assay (TR-FRET tracer displacement), KRas G12C. The following applies: TR-FRET tracer displacement, KRas G12C.

Test [10] has as its system KRas-mediated phosphorylation of ERK in MKN1 cells. The test is described as follows: Inhibition of KRas-mediated phosphorylation of ERK (Cisbio HTRF pERK), MKN1 cells. The following applies: Homo sapiens, MKN-1. In kind it is cell-based. The method in brief:
(§3)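 Overnight culture at 37° C./5% CO2 in RPMI containing 10% FBS, seeded 6,000 cells per well, preceded the assay. A covered 4-hour incubation at room temperature followed, then HTRF signal for phosphorylated ERK was measured.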

Test [11] concerns the target T3, KRas^WT (Homo sapiens, UniProt P01116).
T3 construct: Biotinylated KRas (corresponding to amino acids 1-169, produced at Accelegan Inc.); biotin (biotinylated); purchased Accelegan Inc
The test can be described thus: KRas binding assay (TR-FRET tracer displacement), KRas WT. The following applies: TR-FRET tracer displacement, KRas WT.

Test [12] deals with T4, KRas^G12D (Homo sapiens, UniProt P01116, G12D).
T4 construct: Biotinylated KRas (corresponding to amino acids 1-169, produced at Accelegan Inc.); biotin (biotinylated); purchased Accelegan Inc
The test can be described thus: KRas binding assay (TR-FRET tracer displacement), KRas G12D.

The target of test [13] is T5, KRas^G12V (Homo sapiens, UniProt P01116, G12V).
T5 construct: Biotinylated KRas (corresponding to amino acids 1-169, produced at Accelegan Inc.); biotin (biotinylated); purchased Accelegan Inc
The test is described as follows: KRas binding assay (TR-FRET tracer displacement), KRas G12V.

Test [14] deals with KRas-mediated phosphorylation of ERK in PSN1 cells. The test can be described thus: Inhibition of KRas-mediated phosphorylation of ERK (Cisbio HTRF pERK), PSN1 cells. In kind it is cell-based. The following applies: Homo sapiens. An outline of the steps: as §3
Test [15] concerns the target T6, KRas^G12R (Homo sapiens, UniProt P01116, G12R).
T6 construct: Biotinylated KRas (corresponding to amino acids 1-169, produced at Accelegan Inc.); biotin (biotinylated); purchased Accelegan Inc
The test is described as follows: KRas binding assay (TR-FRET tracer displacement), KRas G12R.

One may read the IC50 as the concentration that gives 50% inhibition. Read a low IC50 as greater potency.

Structures are written as SMILES.

T5 sequence (P01116 1-169 isoform P01116-2 G12V): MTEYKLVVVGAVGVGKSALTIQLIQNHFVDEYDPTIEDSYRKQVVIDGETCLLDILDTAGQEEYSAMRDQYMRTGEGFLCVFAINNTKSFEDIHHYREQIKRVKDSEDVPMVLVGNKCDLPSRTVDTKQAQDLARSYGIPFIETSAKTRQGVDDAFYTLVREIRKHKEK
T1 sequence (P01116 1-169 isoform P01116-2 G12S): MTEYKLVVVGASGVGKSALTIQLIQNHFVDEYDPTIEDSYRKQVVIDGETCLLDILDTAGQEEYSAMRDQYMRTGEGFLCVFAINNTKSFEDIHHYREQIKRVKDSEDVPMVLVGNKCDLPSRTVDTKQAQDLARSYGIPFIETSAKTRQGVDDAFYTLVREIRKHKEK
T4 sequence (P01116 1-169 isoform P01116-2 G12D): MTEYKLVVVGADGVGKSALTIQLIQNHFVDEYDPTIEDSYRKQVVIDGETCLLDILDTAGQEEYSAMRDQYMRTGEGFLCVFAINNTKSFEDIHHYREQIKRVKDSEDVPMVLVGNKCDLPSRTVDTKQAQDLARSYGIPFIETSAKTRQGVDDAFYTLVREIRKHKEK
T3 sequence (P01116 1-169 isoform P01116-2): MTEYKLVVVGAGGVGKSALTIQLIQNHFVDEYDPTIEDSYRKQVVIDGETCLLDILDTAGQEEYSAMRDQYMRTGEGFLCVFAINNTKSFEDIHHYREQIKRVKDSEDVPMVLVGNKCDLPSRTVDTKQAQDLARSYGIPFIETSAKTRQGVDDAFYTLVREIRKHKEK
T2 sequence (P01116 1-169 isoform P01116-2 G12C): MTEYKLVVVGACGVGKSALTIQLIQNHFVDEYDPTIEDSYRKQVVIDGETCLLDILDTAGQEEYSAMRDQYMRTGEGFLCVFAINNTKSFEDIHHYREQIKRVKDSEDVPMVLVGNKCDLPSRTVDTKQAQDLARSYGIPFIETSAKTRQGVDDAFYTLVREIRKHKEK
T6 sequence (P01116 1-169 isoform P01116-2 G12R): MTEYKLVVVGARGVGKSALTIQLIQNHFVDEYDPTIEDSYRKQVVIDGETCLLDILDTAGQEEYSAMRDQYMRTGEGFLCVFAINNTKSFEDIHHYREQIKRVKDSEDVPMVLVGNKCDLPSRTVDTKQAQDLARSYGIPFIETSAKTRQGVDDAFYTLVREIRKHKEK

For the compound `CCc1c(F)ccc2cc(O)cc(-c3ncc4c(N5C[C@@H]6C[C@H](C5)[C@H](O)C6)nc(OC[C@@]56CCCN5C/C(=C\F)C6)nc4c3F)c12` [Example 942, (1R,5R,6R)-3-(7-(8-ethyl-7-fluoro-3-hydroxynaphthalen-1-yl)-8-fluoro-2-(((S,Z)-2-(fluoromethylene)tetrahydro-1H-pyrrolizin-7a(5H)-yl)methoxy)pyrido[4,3-d]pyrimidin-4-yl)-3-azabicyclo[3.2.1]octan-6-ol], the IC50 was found to be 1 nM in [1]; 2 nM in [2]; 0.4 nM in [3]; 1 nM in [4]; 1 nM in test [5]; 1 nM in [6]. In addition, in test [7], the IC50 was 1 nM.

For `C/C=C1\CN2CCCC2(COc2nc(N3C[C@@H]4C[C@H](C3)[C@H](O)C4)c3cnc(-c4cc(O)cc5ccc(F)c(CC)c45)c(F)c3n2)C1` (stereo partly drawn) [Example 938, (1R,5R,6R)-3-(7-(8-ethyl-7-fluoro-3-hydroxynaphthalen-1-yl)-2-(((Z)-2-ethylidenetetrahydro-1H-pyrrolizin-7a(5H)-yl)methoxy)-8-fluoropyrido[4,3-d]pyrimidin-4-yl)-3-azabicyclo[3.2.1]octan-6-ol], the IC50 in [8] is less than 2 nM; in test [1] it was 4 nM; in test [9] it was less than 2 nM; in [2], 9 nM; in test [10] it was 0.2 nM; in test [3], 1 nM. In addition, the IC50 in test [4] was 1 nM; in test [5], 4 nM; in test [6], 3 nM; in test [11], less than 2 nM; in test [12], less than 2 nM; in test [13], less than 2 nM. This compound registered an IC50 in [7] of 7 nM.

In the case of `C=C1CN2CCCC2(COc2nc(N3CCCC4(CCO4)C3)c3cnc(-c4cc(O)cc5ccc(F)c(CC)c45)c(F)c3n2)C1` (centres unmarked) [Example 941, 5-ethyl-6-fluoro-4-(8-fluoro-2-((2-methylenetetrahydro-1H-pyrrolizin-7a(5H)-yl)methoxy)-4-(1-oxa-6-azaspiro[3.5]nonan-6-yl)pyrido[4,3-d]pyrimidin-7-yl)naphthalen-2-ol], the IC50 was less than 2 nM in test [8]; 2 nM in test [1]; less than 2 nM in test [9]; 1 nM in [2]; 0.1 nM in test [10]; 1 nM in test [3]. In addition, the IC50 in test [4] was 1 nM; in [5] it was 2 nM; in [6] it was 2 nM; in test [11], less than 2 nM; in [12] it was less than 2 nM; in test [13] it was less than 2 nM. Further, the half-inhibitory concentration (IC50) in test [7] was 3 nM.

With `C[C@@H]1C[C@@H]1c1c(Cl)cc(O)cc1-c1ncc2c(N3C[C@H]4CC[C@@H](C3)N4)nc(OC[C@@]34CCCN3C/C(=C\F)C4)nc2c1F` [Example 946, 3-(4-((1R,5S)-3,8-diazabicyclo[3.2.1]octan-3-yl)-8-fluoro-2-(((S,Z)-2-(fluoromethylene)tetrahydro-1H-pyrrolizin-7a(5H)-yl)methoxy)pyrido[4,3-d]pyrimidin-7-yl)-5-chloro-4-((1S,2R)-2-methylcyclopropyl)phenol], the IC50 in test [1] came out at 847 nM; in [2], 8 nM; in [3], 212 nM; in test [4], 229 nM; in [5] it was 494 nM; in test [6], 984 nM. For the same compound, the IC50 in test [7] turned out to be 628 nM.

In the case of `CCc1c(F)ccc2cc(O)cc(-c3ncc4c(N5CCC[C@@](C)(O)C5)nc(OC[C@@]56CCCN5C/C(=C\F)C6)nc4c3F)c12` [Example 791, (R)-1-(7-(8-ethyl-7-fluoro-3-hydroxynaphthalen-1-yl)-8-fluoro-2-(((S,Z)-2-(fluoromethylene)tetrahydro-1H-pyrrolizin-7a(5H)-yl)methoxy)pyrido[4,3-d]pyrimidin-4-yl)-3-methylpiperidin-3-ol], the IC50 was 2 nM in test [1]; 1 nM in test [2]; 0.1 nM in test [10]; 1 nM in [3]; 1 nM in [4]; 1 nM in test [5]. The IC50 was 1 nM in test [6]; less than 2 nM in [12]; less than 2 nM in [13]; 2 nM in test [7]; 80 nM in test [14]; less than 2 nM in [15].

As for `C[C@@H]1C[C@@H]1c1c(Cl)cc(O)cc1-c1ncc2c(N3CC4CCC(C3)N4)nc(OC[C@@]34CCCN3C/C(=C\F)C4)nc2c1F` [Example 806, 3-(4-(3,8-diazabicyclo[3.2.1]octan-3-yl)-8-fluoro-2-(((S,Z)-2-(fluoromethylene)tetrahydro-1H-pyrrolizin-7a(5H)-yl)methoxy)pyrido[4,3-d]pyrimidin-7-yl)-5-chloro-4-(cis-2-methylcyclopropyl)phenol], the IC50 amounted to 2 nM in test [8]; 364 nM in test [1]; 3 nM in test [9]; 2 nM in test [2]; 19 nM in test [10]; 43 nM in [3]. Moreover, the IC50 is 29 nM in test [4]; 107 nM in [5]; 139 nM in test [6]; 4 nM in test [11]; less than 2 nM in test [12]; 4 nM in [13]. The compound further gave an IC50 in [7] of 129 nM.

With `C[C@@H]1C[C@@H]1c1c(Cl)cc(O)cc1-c1ncc2c(N3CCC[C@@](C)(O)C3)nc(OC[C@@]34CCCN3C/C(=C\F)C4)nc2c1F` [Example 944, (R)-1-(7-(3-chloro-5-hydroxy-2-((1S,2R)-2-methylcyclopropyl)phenyl)-8-fluoro-2-(((S,Z)-2-(fluoromethylene)tetrahydro-1H-pyrrolizin-7a(5H)-yl)methoxy)pyrido[4,3-d]pyrimidin-4-yl)-3-methylpiperidin-3-ol], the IC50 in [8] is less than 2 nM; in test [1], 6 nM; in test [9], less than 2 nM; in test [2], 2 nM; in test [3], 1 nM; in [4] it was 1 nM. The IC50 is 3 nM in test [5]; 6 nM in [6]; less than 2 nM in test [11]; less than 2 nM in [12]; less than 2 nM in test [13]; 6 nM in test [7].
